From ChEMBL document CHEMBL2406991, “A novel series of metabotropic glutamate receptor 5 negative allosteric modulators based on a 4,5,6,7-tetrahydropyrazolo[1,5-a]pyridine core” (Bioorg Med Chem Lett, 2013)
pIC50: −log10 of the molar value. Calls of active or inactive are those of the source. No cut-off for these calls is given here.

molecular target: Metabotropic glutamate receptor 5 (Rattus norvegicus) (UniProt P31424); assay: Inhibition of rat mGluR5 receptor expressed in HEK293 cells at 30 uM relative to control; type: cell-based; details: not given
Sequence (P31424 21-1203 limits assumed): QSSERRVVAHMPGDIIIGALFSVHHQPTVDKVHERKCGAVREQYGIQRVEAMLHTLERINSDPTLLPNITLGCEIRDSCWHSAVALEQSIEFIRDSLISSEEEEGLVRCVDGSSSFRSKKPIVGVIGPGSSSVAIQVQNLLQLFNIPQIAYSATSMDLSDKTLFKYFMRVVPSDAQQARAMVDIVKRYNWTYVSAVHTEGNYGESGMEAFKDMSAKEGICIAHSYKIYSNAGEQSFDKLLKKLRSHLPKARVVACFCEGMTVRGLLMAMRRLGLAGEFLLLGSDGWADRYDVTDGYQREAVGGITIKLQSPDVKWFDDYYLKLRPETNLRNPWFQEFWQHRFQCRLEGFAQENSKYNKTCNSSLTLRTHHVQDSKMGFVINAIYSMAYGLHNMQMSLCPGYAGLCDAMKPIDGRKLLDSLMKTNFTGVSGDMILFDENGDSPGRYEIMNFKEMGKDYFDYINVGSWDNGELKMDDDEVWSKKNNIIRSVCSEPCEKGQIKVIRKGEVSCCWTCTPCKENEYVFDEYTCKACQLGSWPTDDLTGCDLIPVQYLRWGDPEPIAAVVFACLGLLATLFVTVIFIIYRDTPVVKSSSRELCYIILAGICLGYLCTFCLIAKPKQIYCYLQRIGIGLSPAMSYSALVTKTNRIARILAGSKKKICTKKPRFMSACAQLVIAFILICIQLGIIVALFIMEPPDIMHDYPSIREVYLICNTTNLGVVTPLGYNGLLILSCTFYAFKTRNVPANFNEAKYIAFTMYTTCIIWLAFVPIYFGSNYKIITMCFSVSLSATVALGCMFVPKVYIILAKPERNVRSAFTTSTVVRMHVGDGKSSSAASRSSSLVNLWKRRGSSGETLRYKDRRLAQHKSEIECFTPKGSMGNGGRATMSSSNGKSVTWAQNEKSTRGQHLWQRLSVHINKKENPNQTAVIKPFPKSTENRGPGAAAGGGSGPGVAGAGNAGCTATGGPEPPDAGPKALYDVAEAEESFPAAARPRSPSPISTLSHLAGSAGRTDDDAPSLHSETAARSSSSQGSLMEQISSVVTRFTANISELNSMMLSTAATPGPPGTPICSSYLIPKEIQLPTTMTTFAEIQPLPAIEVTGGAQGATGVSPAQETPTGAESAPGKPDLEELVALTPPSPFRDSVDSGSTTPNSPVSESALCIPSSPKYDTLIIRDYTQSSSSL

inhibition [%] | SMILES
> 99 | N#Cc1ccc(NC(=O)c2cc3n(n2)CCCC3)nc1
> 99 | N#Cc1ccc(CC(=O)c2nn3c(c2Cl)CCCC3)nc1

molecular target: Cytochrome P450 3A4 (Homo sapiens, UniProt P08684); assay: Inhibition of CYP3A4 (unknown origin); type: ADME; details: not given
Sequence (P08684 whole entry): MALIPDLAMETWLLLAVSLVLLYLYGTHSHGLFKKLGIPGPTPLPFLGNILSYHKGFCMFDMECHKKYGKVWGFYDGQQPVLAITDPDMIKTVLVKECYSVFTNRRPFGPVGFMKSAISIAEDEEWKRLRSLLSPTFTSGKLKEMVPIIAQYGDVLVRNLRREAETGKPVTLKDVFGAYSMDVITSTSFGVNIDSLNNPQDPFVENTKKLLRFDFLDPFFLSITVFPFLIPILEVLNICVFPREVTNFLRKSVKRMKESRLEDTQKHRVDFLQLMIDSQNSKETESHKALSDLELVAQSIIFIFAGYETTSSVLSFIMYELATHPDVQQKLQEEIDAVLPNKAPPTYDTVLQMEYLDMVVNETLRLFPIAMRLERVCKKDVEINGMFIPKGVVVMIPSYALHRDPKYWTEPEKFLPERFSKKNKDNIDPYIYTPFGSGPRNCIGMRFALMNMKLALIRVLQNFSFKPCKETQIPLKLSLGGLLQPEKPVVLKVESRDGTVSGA

INH [µM] | SMILES
> 10 | N#Cc1ccc(NC(=O)c2cc3n(n2)CCCC3)nc1
> 10 | N#Cc1ccc(CC(=O)c2nn3c(c2Cl)CCCC3)nc1

test system: Plasma; assay: Metabolic stability in rat plasma matrix; type: ADME, cell-free; details: not given

Stability | SMILES
Unstable | N#Cc1ccc(NC(=O)c2cc3n(n2)CCCC3)nc1

molecular target: T1, Cytochrome P450 1A2 (Homo sapiens, UniProt P05177); assay: Inhibition of CYP1A2 (unknown origin); type: ADME; details: not given
T1 sequence (P05177 whole entry): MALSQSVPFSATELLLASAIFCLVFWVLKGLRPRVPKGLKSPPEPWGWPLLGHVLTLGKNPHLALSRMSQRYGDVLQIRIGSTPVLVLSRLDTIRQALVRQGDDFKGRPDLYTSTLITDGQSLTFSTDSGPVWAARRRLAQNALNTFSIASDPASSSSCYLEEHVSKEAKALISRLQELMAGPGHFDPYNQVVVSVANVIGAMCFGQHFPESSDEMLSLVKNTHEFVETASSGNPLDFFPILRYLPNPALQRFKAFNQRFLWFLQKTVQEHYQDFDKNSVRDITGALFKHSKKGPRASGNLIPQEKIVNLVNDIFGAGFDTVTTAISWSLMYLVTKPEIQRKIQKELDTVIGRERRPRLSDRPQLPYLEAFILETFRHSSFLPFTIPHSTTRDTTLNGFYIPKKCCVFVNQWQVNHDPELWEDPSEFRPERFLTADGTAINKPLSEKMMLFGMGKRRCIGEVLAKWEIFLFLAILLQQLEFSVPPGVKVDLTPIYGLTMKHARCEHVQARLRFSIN

INH [µM] | SMILES
> 10 | N#Cc1ccc(NC(=O)c2cc3n(n2)CCCC3)nc1
> 10 | N#Cc1ccc(CC(=O)c2nn3c(c2Cl)CCCC3)nc1

test system: not listed separately; assay: Intrinsic clearance in human microsomes measured per mg of protein; type: ADME, Microsome; details: not given

microsomal CLint [µL/min/mg] | SMILES
83 | N#Cc1ccc(NC(=O)c2cc3n(n2)CCCC3)nc1
79 | N#Cc1ccc(CC(=O)c2nn3c(c2Cl)CCCC3)nc1

molecular target: Cytochrome P450 2C9 (Homo sapiens, UniProt P11712); assay: Inhibition of CYP2C9 (unknown origin); type: ADME; details: not given
Sequence (P11712 whole entry): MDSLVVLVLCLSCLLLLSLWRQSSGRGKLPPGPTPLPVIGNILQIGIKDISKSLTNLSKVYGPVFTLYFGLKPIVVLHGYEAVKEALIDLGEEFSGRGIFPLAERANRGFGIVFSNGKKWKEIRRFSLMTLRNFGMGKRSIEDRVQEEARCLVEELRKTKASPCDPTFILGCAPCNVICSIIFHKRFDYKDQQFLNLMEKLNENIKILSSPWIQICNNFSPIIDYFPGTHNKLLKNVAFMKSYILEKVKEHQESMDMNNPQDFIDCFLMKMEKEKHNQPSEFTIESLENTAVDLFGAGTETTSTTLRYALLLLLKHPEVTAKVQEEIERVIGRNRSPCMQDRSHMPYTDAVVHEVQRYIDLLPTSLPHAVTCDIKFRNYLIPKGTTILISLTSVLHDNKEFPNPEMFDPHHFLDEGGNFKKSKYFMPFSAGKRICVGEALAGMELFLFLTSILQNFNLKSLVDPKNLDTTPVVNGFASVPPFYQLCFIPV

INH [µM] | SMILES
> 10 | N#Cc1ccc(NC(=O)c2cc3n(n2)CCCC3)nc1
> 10 | N#Cc1ccc(CC(=O)c2nn3c(c2Cl)CCCC3)nc1

molecular target: Cytochrome P450 2D6 (Homo sapiens, UniProt P10635); assay: Inhibition of CYP2D6 (unknown origin); type: ADME; details: not given
Sequence (P10635 whole entry): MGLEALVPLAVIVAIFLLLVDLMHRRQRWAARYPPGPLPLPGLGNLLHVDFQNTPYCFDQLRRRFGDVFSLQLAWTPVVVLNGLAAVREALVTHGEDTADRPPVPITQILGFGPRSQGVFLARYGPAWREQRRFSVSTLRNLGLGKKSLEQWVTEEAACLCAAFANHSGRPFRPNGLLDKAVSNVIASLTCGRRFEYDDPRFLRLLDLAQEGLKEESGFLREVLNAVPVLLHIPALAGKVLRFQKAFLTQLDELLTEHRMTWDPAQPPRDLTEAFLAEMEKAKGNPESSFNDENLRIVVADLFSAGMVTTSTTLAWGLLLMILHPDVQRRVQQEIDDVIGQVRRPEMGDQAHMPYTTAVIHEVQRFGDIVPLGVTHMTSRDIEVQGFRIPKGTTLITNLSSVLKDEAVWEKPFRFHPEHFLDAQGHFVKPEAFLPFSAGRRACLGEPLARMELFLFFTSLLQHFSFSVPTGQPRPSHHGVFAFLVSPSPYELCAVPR

INH [µM] | SMILES
> 10 | N#Cc1ccc(NC(=O)c2cc3n(n2)CCCC3)nc1
> 10 | N#Cc1ccc(CC(=O)c2nn3c(c2Cl)CCCC3)nc1

molecular target: Metabotropic glutamate receptor 5 (Rattus norvegicus) (UniProt P31424); assay: Displacement of [3H]MPEP from mGluR5 receptor in Sprague-Dawley rat cortical homogenate after 1 hr by liquid scintillation spectrometric analysis; details: not given

INH [nM] | SMILES
151 | N#Cc1ccc(NC(=O)c2cc3n(n2)CCCC3)nc1

test system: Rattus norvegicus; assay: Antinociceptive activity in Sprague-Dawley rat assessed as reduction in formalin-induced nocifensive behavior at 10 mg/kg, po administered 30 mins prior to formalin-challenge; type: functional, organism-based; set-up: dose 10 mg/kg; details: not given

SMILES | Activity
Cc1nc(C#Cc2cccnc2)cs1 | Active

molecular target: Metabotropic glutamate receptor 5 (Rattus norvegicus, UniProt P31424); assay: Negative allosteric modulation of rat mGluR5 receptor expressed in HEK293 cells assessed as intracellular calcium flux after 170 seconds by FLIPR assay; type: functional, cell-based; details: hek293
Sequence (P31424 whole entry): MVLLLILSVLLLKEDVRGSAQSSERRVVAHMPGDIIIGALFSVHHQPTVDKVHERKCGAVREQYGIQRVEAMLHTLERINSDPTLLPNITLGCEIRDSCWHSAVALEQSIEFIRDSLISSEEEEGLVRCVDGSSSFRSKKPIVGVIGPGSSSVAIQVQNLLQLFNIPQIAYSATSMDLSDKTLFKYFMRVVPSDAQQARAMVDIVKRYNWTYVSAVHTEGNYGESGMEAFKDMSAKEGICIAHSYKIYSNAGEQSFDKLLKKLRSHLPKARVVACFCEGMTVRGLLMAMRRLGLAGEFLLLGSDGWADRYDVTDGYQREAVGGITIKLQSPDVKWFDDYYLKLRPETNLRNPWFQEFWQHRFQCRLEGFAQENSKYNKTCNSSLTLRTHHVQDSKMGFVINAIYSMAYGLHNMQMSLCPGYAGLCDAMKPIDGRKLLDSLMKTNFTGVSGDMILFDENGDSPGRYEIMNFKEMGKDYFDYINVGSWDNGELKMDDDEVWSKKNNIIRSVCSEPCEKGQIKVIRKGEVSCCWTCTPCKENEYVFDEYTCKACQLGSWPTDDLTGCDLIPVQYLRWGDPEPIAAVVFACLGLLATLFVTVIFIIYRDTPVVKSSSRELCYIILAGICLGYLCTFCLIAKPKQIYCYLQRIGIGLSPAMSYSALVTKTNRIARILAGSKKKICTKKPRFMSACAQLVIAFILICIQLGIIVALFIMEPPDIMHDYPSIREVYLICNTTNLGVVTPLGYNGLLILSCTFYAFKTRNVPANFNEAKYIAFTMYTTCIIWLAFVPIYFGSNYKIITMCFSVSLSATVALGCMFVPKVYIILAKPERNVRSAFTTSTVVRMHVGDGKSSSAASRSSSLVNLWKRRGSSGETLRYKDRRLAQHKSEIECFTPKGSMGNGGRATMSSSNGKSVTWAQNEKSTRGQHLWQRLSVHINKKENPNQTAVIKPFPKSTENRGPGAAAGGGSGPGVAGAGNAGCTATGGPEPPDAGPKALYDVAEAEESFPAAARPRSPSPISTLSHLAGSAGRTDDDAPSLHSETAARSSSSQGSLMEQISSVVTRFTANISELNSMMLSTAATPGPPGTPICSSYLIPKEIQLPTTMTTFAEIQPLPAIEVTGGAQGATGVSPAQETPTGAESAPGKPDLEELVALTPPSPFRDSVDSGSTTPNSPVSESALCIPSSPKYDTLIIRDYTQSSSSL

SMILES | IC50
N#Cc1ccccc1COc1cc2n(n1)CCCC2 | Not Active
CC(=O)c1ccc(COc2cc3n(n2)CCCC3)nc1 | Not Active

Continued, values first:

IC50 | SMILES
Not Active | Cc1cccnc1NC(=O)c1cc2n(n1)CCCC2
Not Active | COc1cccnc1NC(=O)c1cc2n(n1)CCCC2

same assay, conditions: read-out: IC50

pIC50 | SMILES
7.05 | N#Cc1ccc(NC(=O)c2cc3n(n2)CCCC3)nc1
6.97 | N#Cc1ccc(CC(=O)c2nn3c(c2Cl)CCCC3)nc1

test system: not listed separately; assay: Intrinsic clearance in rat microsomes measured per mg of protein; type: ADME, Microsome; details: not given

microsomal CLint [µL/min/mg] | SMILES
649 | N#Cc1ccc(CC(=O)c2nn3c(c2Cl)CCCC3)nc1
